# Laboratory results as given in US10550144B2, “6-aryl-9-glycosylpurines and use thereof” (UNIVERZITA PALACKEHO V OLOMOUCI, priority 2014, dated 2020).
# Tests used:
# Vaccinia virus = details: Masakatsu et al. 1977, cited from earlier work
# Herpes simplex virus = details: Masakatsu et al. 1977; cited from earlier work
# [1] = test system: Triticum aestivum cv. Hereward detached leaf segments; assay: Senescence bioassay on detached wheat leaf segments (chlorophyll retention); format: in vivo; details: for maximum effective concentration: 96 h incubation in the dark at 25° C., tested 10^−8 M to 10^−4 M
# Procedure: Seeds of winter wheat, Triticum aestivum cv. Hereward, were washed under running water for 24 hours and then sown on vermiculite soaked with Knop's solution. They were placed in the growth chamber at 25° C. with a 16/8 h light period at 50 μmol·m^−2·s^−1. After 7 days, the first leaf was fully developed and the second leaf had started to grow. A tip section of the first leaf, approximately 35 mm long, was removed from 5 seedlings and trimmed slightly to a combined weight of 100 mg. The basal ends of the five leaf tips were placed in the wells of a microtiter polystyrene plate containing 150 μL of the tested derivative solution each. The entire plate was inserted into a plastic box lined with paper tissues soaked in distilled water to prevent leaf sections from drying out. After 96 h incubation in the dark at 25° C., the leaves were removed and chlorophyll extracted by heating at 80° C. for 10 min in 5 mL of 80% ethanol (v/v). The sample volume was then restored to 5 mL by the addition of 80% ethanol (v/v). The absorbance of the extract was recorded at 665 nm. In addition, chlorophyll extracts from fresh leaves and leaf tips incubated in deionised water were measured. The results are means of five replicates and the entire test was repeated twice. […] The compounds to be tested were dissolved in dimethylsulfoxide (DMSO) and the solution brought up to 10^−3M with distilled water. […] The activity obtained for 10^−4 M of BAP was postulated as 100%.
# [2] = test system: Arabidopsis wild-type plants (Col-0) detached leaves, gene transcription; assay: Differential gene expression study (RNA sequencing) in detached senescent leaves; format: in vivo; details: 10 μM
# Procedure: For isolation of total RNA, Arabidopsis wild-type plants (Col-0) were used, which were either treated with 3MeOBAPA or left untreated. Wild-type plants were grown in soil for 30 days, and then leaves of similar size and chlorophyll content were cut and immediately used for the treatment. At least 20 detached leaves were submerged in 1×MS medium supplemented with 10 μM 3MeOBAPA. Control samples were mock treated with DMSO only. After incubation for 6 h or 48 h in the dark, detached leaves were frozen in liquid nitrogen and used for RNA isolation; 150 mg of liquid nitrogen-ground material was used per isolation. cDNA sequencing libraries were prepared with the Illumina TruSeq Stranded mRNA LT Sample Prep Kit (Illumina, San Diego, Calif.) according to standard Illumina's protocols and sequenced on HiSeq 2500 apparatus (50 bp single-end reads).
# To gain insight into the molecular mechanism of 3MeOBAPA action in Arabidopsis we decided to analyze the gene expression patterns via comparison of mock (DMSO)-treated plants with those obtained after i) short time treatment with 3MeOBAPA (6 h) and ii) long time treatment (48 h). This comparison leads to identification of group of genes with similar kinetic of expression and helps to understand possible mechanism of regulation. For data analysis, we performed ab initio method where sequencing reads were mapped to the reference genome.
compound,measurement,setting,value
"Cc1cccc(C)c1CNc1ncnc2c1ncn2[C@@H]1O[C@H](CO)[C@@H](O)[C@@H]1O [2,6-dimethylbenzyl]",activity in killing Vaccinia virus,Vaccinia virus,No effect
same,activity in killing Herpes simplex virus,Herpes simplex virus,No effect
"Cc1ccc(CNc2ncnc3c2ncn3[C@@H]2O[C@H](CO)[C@@H](O)[C@@H]2O)cc1C [3,4-dimethylbenzyl]",activity in killing Vaccinia virus,Vaccinia virus,No effect
same,activity in killing Herpes simplex virus,Herpes simplex virus,No effect
"Cc1ccc(CNc2ncnc3c2ncn3C2OC(CO)C(O)C2O)c(C)c1 (centres unmarked) [2,4-dimethylbenzyl]","activity against Vaccinia virus, strain IHD",Vaccinia virus,low activity
OC[C@H]1O[C@@H](n2cnc3c(NCc4ccccc4Br)ncnc32)[C@@H](O)[C@@H]1O [6-(2-bromobenzylamino)-9-β-D-arabinofuranosylpurine],maximum effective concentration,[1],10^−5 mol · l^−1
"COc1ccc(CNc2ncnc3c2ncn3[C@@H]2O[C@H](CO)[C@@H](O)[C@@H]2O)cc1OC [6-(3,4-dimethoxybenzylamino)-9-β-D-arabinofuranosylpurine]",maximum effective concentration,[1],10^−4 mol · l^−1
OC[C@H]1O[C@@H](n2cnc3c(NCc4cccc(I)c4)ncnc32)[C@@H](O)[C@@H]1O [6-(3-iodobenzylamino)-9-β-D-arabinofuranosylpurine],maximum effective concentration,[1],10^−4 mol · l^−1
"OC[C@H]1O[C@@H](n2cnc3c(NCc4ccc(Cl)cc4Cl)ncnc32)[C@H](O)[C@@H]1O [6-(2,4-dichlorbenzylamino)-9-riboside, reference compound]",activity (%) [10^−4 mol · l^−1 BAP = 100%],"[1]; chlorophyll content at the maximum effective concentration, 96 h in the dark",5 ± 1%
Cc1ccccc1CNc1ncnc2c1ncn2[C@@H]1O[C@H](CO)[C@@H](O)[C@@H]1O [2-methylbenzyl],activity in killing Vaccinia virus,Vaccinia virus,No effect
same,activity in killing Herpes simplex virus,Herpes simplex virus,No effect
OC[C@H]1O[C@@H](n2cnc3c(NCc4ccco4)ncnc32)[C@@H](O)[C@@H]1O [6-furfurylamino-9-β-D-arabinofuranosylpurine],maximum effective concentration,[1],10^−4 mol · l^−1
"Cc1ccc(C)c(CNc2ncnc3c2ncn3C2OC(CO)C(O)C2O)c1 (centres unmarked) [2,5-dimethylbenzyl]","activity against Vaccinia virus, strain IHD",Vaccinia virus,low activity
OC[C@H]1O[C@@H](n2cnc3c(NCc4cccc(F)c4)ncnc32)[C@@H](O)[C@@H]1O [6-(3-fluorobenzylamino)-9-β-D-arabinofuranosylpurine],maximum effective concentration,[1],10^−4 mol · l^−1
OC[C@H]1O[C@@H](n2cnc3c(NCc4ccc(Br)cc4)ncnc32)[C@@H](O)[C@@H]1O [6-(4-bromobenzylamino)-9-β-D-arabinofuranosylpurine],maximum effective concentration,[1],10^−4 mol · l^−1
OC[C@H]1O[C@@H](n2cnc3c(NCc4ccccc4)ncnc32)[C@@H](O)[C@@H]1O [6-benzylamino-9-β-D-arabinofuranosylpurine],activity in killing Vaccinia virus,Vaccinia virus,No effect
same,activity in killing Herpes simplex virus,Herpes simplex virus,No effect
OC[C@H]1O[C@@H](n2cnc3c(NCc4cccc(Cl)c4)ncnc32)[C@@H](O)[C@@H]1O [6-(3-chlorobenzylamino)-9-β-D-arabinofuranosylpurine],maximum effective concentration,[1],10^−4 mol · l^−1
COc1cccc(CNc2ncnc3c2ncn3[C@@H]2O[C@H](CO)[C@@H](O)[C@@H]2O)c1 [6-(3-methoxybenzylamino)-9-β-D-arabinofuranosylpurine],maximum effective concentration,[1],10^−4 mol · l^−1
same,logFC AT1G10585 Basic helix-loop-helix (bHLH) DNA-binding superfamily protein,[2]; 6 h,0.38
same,logFC AT1G15540 2-oxoglutarate and Fe(II)-dependent oxygenase superfamily protein,[2]; 6 h,0.57
same,logFC AT1G19670 Chlorophyllase-1 (CLH1),[2]; 6 h,0.63
same,logFC AT1G59860 17.6 kDa class I heat shock protein 1 (HSP17.6A),[2]; 6 h,0.48
same,logFC AT1G76640 Calcium-binding EF-hand family protein (CML39),[2]; 6 h,0.78
same,logFC AT2G02010 Glutamate decarboxylase 4 (GAD4),[2]; 6 h,0.55
same,logFC AT2G18150 Peroxidase 15 (PER15),[2]; 6 h,0.68
same,logFC AT2G21900 WRKY transcription factor 59 (WRKY59),[2]; 6 h,0.54
same,logFC AT2G26695 Ran BP2/NZF zinc finger-like superfamily protein,[2]; 6 h,0.50
same,logFC AT2G28210 Alpha carbonic anhydrase 2 (ATACA2),[2]; 6 h,0.85
same,logFC AT2G37430 Zinc finger protein ZAT11,[2]; 6 h,0.42
same,logFC AT2G39030 L-ornithine N5-acetyltransferase (NATA1),[2]; 6 h,0.56
same,logFC AT2G47040 Pectin methylesterase Vanguard1 (VGD1),[2]; 6 h,2.80
same,logFC AT3G05610 Pectinesterase/pectinesterase inhibitor 21 (PME21),[2]; 6 h,1.80
same,logFC AT3G09340 Transmembrane amino acid transporter family protein,[2]; 6 h,0.55
same,logFC AT3G11340 UDP-Glycosyltransferase superfamily protein,[2]; 6 h,0.51
same,logFC AT3G13400 SKU5 similar 13 (SKS13),[2]; 6 h,0.82
same,logFC AT3G28153 Transposable element gene,[2]; 6 h,0.92
same,logFC AT3G28155 ARM repeat superfamily protein,[2]; 6 h,0.59
same,logFC AT3G44830 Putative phospholipid:diacylglycerol acyltransferase 2 (PDAT2),[2]; 6 h,0.38
same,logFC AT4G01390 TRAF-like family protein,[2]; 6 h,0.79
same,logFC AT4G21830 Peptide methionine sulfoxide reductase B7 (MSRB7),[2]; 6 h,0.55
same,"logFC AT4G22030 F-box domain, cyclin-like, F-box domain, Skp2-like protein",[2]; 6 h,0.41
same,logFC AT4G22620 SAUR-like auxin-responsive family protein,[2]; 6 h,0.46
same,logFC AT4G24350 Phosphorylase superfamily protein,[2]; 6 h,0.64
same,logFC AT4G26010 Peroxidase 44 (PER44),[2]; 6 h,0.53
same,logFC AT4G31950 Cytochrome P450 82C3 (CYP82C3),[2]; 6 h,0.37
same,logFC AT4G37780 Myb domain protein 87 (MYB87),[2]; 6 h,0.41
same,logFC AT4G39320 Microtubule-associated protein-related,[2]; 6 h,0.45
same,logFC AT5G03610 GDSL esterase/lipase,[2]; 6 h,0.42
same,logFC AT5G52670 Copper transport family protein,[2]; 6 h,0.57
same,logFC AT5G62720 Integral membrane HPP family protein,[2]; 6 h,0.44
same,logFC AT5G63270 RPM1-interacting protein 4 (RIN4) family protein,[2]; 6 h,0.56
same,logFC AT2G26695 Ran BP2/NZF zinc finger-like superfamily protein,[2]; 48 h,5.90
same,logFC AT3G11340 UDP-Glycosyltransferase superfamily protein,[2]; 48 h,6.60
same,logFC AT3G28153 Transposable element gene,[2]; 48 h,5.70
same,number of downregulated genes (P≤0.05),[2]; long time treatment (48 h) vs mock (DMSO),7 095 genes
"Cc1cccc(CNc2ncnc3c2ncn3C2OC(CO)C(O)C2O)c1C (centres unmarked) [2,3-dimethylbenzyl]",activity in killing Vaccinia virus,Vaccinia virus,No effect
same,activity in killing Herpes simplex virus,Herpes simplex virus,No effect
OC[C@H]1O[C@@H](n2cnc3c(NCc4cccc(Br)c4)ncnc32)[C@@H](O)[C@@H]1O [6-(3-bromobenzylamino)-9-β-D-arabinofuranosylpurine],maximum effective concentration,[1],10^−4 mol · l^−1
